From ChEMBL document CHEMBL4387741, “Optimization of novel reversible Bruton's tyrosine kinase inhibitors identified using Tethering-fragment-based screens” (Bioorg Med Chem, 2019)

Experiments:
[1] = tested on: Tyrosine-protein kinase ABL1 (Homo sapiens), P00519 [F317L]; assay: Inhibition of human non-phosphorylated ABL1 F317L mutant (S229 to K512 residues) expressed in mammalian expression system at 1 uM by Kinomescan method relative to control
[2] = target: Serine/threonine-protein kinase 17B (Homo sapiens) (UniProt O94768); assay: Inhibition of wild-type human full length DRAK2 (M1 to C372 residues) expressed in bacterial expression system at 1 uM by Kinomescan method relative to control
[3] = tested on: Receptor-type tyrosine-protein kinase FLT3 (Homo sapiens), P36888 [K663Q]; assay: Inhibition of human partial length FLT3 K663Q mutant (V592 to Y969 residues) expressed in bacterial expression system at 1 uM by Kinomescan method relative to control
[4] = target: Receptor-type tyrosine-protein kinase FLT3 (Homo sapiens) (UniProt P36888); assay: Inhibition of wild-type human partial length autoinhibited FLT3 (H564 to Y969 residues) expressed in mammalian expression system at 1 uM by Kinomescan method relative to control
[5] = target: Cyclin-G-associated kinase (Homo sapiens) (UniProt O14976); assay: Inhibition of wild-type human partial length GAK (G13 to Y338 residues) expressed in bacterial expression system at 1 uM by Kinomescan method relative to control
[6] = target: Tyrosine-protein kinase JAK2 (Homo sapiens) (UniProt O60674); assay: Inhibition of wild-type human partial length JAK2 JH1 catalytic domain (A829 to G1132 residues) expressed in mammalian expression system at 1 uM by Kinomescan method relative to control
[7] = target: Dual specificity mitogen-activated protein kinase kinase 4 (Homo sapiens) (UniProt P45985); assay: Inhibition of wild-type human partial length MEK4 (S84 to D399 residues) expressed in mammalian expression system at 1 uM by Kinomescan method relative to control
[8] = target: Phosphatidylinositol 4,5-bisphosphate 3-kinase catalytic subunit beta isoform (Homo sapiens) (UniProt P42338); assay: Inhibition of wild-type human partial length PIK3CB (P118 to S1070 residues) expressed in mammalian expression system at 1 uM by Kinomescan method relative to control
Chain of Phosphatidylinositol 4,5-bisphosphate 3-kinase catalytic subunit beta isoform (Homo sapiens) (P42338 whole entry, looked up, the tested form may be a part, canonical isoform): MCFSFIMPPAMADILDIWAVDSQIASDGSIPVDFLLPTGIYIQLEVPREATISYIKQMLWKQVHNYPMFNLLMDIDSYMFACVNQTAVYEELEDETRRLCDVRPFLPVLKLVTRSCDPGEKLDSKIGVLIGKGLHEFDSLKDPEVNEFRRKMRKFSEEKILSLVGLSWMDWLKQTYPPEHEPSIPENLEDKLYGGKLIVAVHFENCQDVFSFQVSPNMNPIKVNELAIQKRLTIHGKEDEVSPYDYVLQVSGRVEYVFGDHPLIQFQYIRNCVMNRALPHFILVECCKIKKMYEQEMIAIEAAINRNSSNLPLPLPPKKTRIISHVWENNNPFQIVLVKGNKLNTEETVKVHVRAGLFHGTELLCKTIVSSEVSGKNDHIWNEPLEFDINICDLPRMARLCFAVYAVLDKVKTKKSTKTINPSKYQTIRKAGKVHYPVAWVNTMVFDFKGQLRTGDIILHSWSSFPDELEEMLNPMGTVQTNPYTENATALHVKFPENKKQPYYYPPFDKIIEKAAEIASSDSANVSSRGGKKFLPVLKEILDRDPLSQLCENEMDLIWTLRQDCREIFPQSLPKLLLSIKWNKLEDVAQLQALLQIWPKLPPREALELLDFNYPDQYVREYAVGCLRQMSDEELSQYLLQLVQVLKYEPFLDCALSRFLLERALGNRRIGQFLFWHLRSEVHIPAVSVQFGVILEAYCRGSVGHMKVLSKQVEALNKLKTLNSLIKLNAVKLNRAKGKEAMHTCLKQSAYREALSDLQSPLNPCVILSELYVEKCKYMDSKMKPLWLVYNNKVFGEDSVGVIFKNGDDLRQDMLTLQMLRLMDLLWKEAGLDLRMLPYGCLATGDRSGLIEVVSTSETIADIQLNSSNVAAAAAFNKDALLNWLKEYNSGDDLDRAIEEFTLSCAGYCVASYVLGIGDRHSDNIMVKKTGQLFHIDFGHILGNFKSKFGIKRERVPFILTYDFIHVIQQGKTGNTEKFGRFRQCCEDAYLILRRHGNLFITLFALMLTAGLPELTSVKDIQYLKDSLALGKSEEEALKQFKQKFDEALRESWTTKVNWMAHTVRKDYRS

[9] = target: Receptor-interacting serine/threonine-protein kinase 4 (Homo sapiens) (UniProt P57078); assay: Inhibition of wild-type human partial length RIPK4 (M1 to V303 residues) expressed in mammalian expression system at 1 uM by Kinomescan method relative to control
Chain of Receptor-interacting serine/threonine-protein kinase 4 (Homo sapiens) (P57078 whole entry, the tested form may be a part): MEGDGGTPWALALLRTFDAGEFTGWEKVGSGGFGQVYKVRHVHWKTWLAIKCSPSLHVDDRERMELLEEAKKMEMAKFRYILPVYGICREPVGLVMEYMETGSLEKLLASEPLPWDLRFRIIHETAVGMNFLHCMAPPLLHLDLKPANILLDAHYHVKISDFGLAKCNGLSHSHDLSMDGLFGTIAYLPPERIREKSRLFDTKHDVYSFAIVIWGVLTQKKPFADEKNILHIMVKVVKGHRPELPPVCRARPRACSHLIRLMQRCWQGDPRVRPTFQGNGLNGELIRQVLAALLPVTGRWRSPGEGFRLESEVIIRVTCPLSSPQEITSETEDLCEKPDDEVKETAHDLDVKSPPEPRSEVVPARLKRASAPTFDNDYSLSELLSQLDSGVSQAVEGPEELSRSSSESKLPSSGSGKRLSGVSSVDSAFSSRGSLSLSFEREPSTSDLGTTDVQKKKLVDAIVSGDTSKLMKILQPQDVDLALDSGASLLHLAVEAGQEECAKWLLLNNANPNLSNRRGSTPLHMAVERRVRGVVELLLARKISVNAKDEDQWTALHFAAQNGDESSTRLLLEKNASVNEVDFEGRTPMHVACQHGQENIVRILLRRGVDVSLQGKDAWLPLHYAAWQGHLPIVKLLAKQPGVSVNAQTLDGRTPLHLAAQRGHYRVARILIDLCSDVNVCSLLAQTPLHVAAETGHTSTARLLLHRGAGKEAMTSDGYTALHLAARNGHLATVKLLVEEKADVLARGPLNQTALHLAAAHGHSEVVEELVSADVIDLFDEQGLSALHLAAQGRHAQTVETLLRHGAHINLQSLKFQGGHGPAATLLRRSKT

[10] = target: Vascular endothelial growth factor receptor 2 (Homo sapiens) (UniProt P35968); assay: Inhibition of wild-type human partial length VEGFR2 (R787 to P1253 residues) expressed in mammalian expression system at 1 uM by Kinomescan method relative to control
[11] = target: Serine/threonine-protein kinase 25 (Homo sapiens) (UniProt O00506); assay: Inhibition of wild-type human partial length YSK1 (V14 to H295 residues) expressed in bacterial expression system at 1 uM by Kinomescan method relative to control
[12] = target: Tyrosine-protein kinase BTK (Homo sapiens, UniProt Q06187); assay: biochemical
Description: Reversible inhibition of recombinant full-length N-terminal 6-His-tagged human BTK expressed in baculovirus infected Sf21 insect cells using fluorescent-labeled polyGAT peptide as substrate incubated for 30 mins by TR-FRET assay

[13] = target: Ankyrin repeat and protein kinase domain-containing protein 1 (Homo sapiens) (UniProt Q8NFD2); assay: Inhibition of wild-type human partial length ANKK1 (M1 to A305 residues) expressed in mammalian expression system at 10 uM by Kinomescan method relative to control
[14] = target: Bone morphogenetic protein receptor type-1A (Homo sapiens) (UniProt P36894); assay: Inhibition of wild-type human partial length BMPR1A (Q214 to I532 residues) expressed in bacterial expression system at 10 uM by Kinomescan method relative to control
[15] = target: Tyrosine-protein kinase CSK (Homo sapiens) (UniProt P41240); assay: Inhibition of wild-type human full length CSK (M1 to L450 residues) expressed in bacterial expression system at 10 uM by Kinomescan method relative to control
[16] = target: Casein kinase I isoform delta (Homo sapiens) (UniProt P48730); assay: Inhibition of wild-type human full length CSNK1D (M1 to K409 residues) expressed in bacterial expression system at 10 uM by Kinomescan method relative to control
[17] = target: Ephrin type-B receptor 2 (Homo sapiens) (UniProt P29323); assay: Inhibition of wild-type human partial length EPHB2 (I597 to L902 residues) expressed in bacterial expression system at 10 uM by Kinomescan method relative to control
[18] = target: Receptor-type tyrosine-protein kinase FLT3 (Homo sapiens) (UniProt P36888); assay: Inhibition of wild-type human partial length autoinhibited FLT3 (H564 to Y969 residues) expressed in mammalian expression system at 10 uM by Kinomescan method relative to control
[19] = tested on: Mast/stem cell growth factor receptor Kit (Homo sapiens), P10721 [V559D,T670I]; assay: Inhibition of human partial length KIT V559D/T670I double mutant (Y545 to D952 residues) expressed in bacterial expression system at 10 uM by Kinomescan method relative to control
Chain of Mast/stem cell growth factor receptor Kit (Homo sapiens), P10721 [V559D,T670I] (P10721 whole entry V559D/T670I, the tested form may be a part): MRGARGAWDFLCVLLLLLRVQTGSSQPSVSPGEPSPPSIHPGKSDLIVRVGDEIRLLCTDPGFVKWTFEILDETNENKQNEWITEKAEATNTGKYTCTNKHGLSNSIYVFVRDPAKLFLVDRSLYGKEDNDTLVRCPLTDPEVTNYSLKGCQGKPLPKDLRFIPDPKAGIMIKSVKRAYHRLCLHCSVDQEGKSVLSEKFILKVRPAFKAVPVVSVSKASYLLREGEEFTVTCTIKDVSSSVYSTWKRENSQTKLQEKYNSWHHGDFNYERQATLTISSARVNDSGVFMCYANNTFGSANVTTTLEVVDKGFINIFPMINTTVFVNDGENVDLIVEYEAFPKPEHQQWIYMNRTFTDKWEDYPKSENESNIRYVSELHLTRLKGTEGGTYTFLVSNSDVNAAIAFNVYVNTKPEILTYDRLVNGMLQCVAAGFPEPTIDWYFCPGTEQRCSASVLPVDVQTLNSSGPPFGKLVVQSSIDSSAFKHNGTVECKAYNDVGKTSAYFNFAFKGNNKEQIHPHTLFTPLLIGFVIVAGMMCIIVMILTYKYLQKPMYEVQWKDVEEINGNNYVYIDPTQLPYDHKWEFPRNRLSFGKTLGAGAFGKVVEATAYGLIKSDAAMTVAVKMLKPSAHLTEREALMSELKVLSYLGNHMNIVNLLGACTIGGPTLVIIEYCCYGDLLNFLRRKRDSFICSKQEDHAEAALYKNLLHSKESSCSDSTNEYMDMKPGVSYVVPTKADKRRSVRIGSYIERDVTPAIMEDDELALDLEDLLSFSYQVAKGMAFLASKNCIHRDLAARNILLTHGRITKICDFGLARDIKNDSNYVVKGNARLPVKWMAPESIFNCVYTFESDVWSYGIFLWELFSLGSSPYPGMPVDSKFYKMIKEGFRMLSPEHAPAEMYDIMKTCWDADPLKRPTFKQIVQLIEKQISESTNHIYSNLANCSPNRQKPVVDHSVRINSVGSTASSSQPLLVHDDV

[20] = target: Myosin light chain kinase family member 4 (Homo sapiens) (UniProt Q86YV6); assay: Inhibition of wild-type human partial length MYLK4 (V79 to S380 residues) expressed in bacterial expression system at 10 uM by Kinomescan method relative to control
[21] = target: Myosin-IIIa (Homo sapiens) (UniProt Q8NEV4); assay: Inhibition of wild-type human partial length MYO3A (M1 to K338 residues) expressed in bacterial expression system at 10 uM by Kinomescan method relative to control
[22] = target: Platelet-derived growth factor receptor alpha (Homo sapiens) (UniProt P16234); assay: Inhibition of wild-type human partial length PDGFRA (V575 to D1002 residues) expressed in mammalian expression system at 10 uM by Kinomescan method relative to control
[23] = target: Receptor-interacting serine/threonine-protein kinase 4 (Homo sapiens) (UniProt P57078); assay: Inhibition of wild-type human partial length RIPK4 (M1 to V303 residues) expressed in mammalian expression system at 10 uM by Kinomescan method relative to control
[24] = target: Serine/threonine-protein kinase SBK1 (Homo sapiens) (UniProt Q52WX2); assay: Inhibition of wild-type human partial length SBK1 (P23 to P348 residues) expressed in mammalian expression system at 10 uM by Kinomescan method relative to control
[25] = target: Tyrosine-protein kinase Srms (Homo sapiens) (UniProt Q9H3Y6); assay: Inhibition of wild-type human partial length SRMS (L208 to P488 residues) expressed in mammalian expression system at 10 uM by Kinomescan method relative to control
Chain of Tyrosine-protein kinase Srms (Homo sapiens) (Q9H3Y6 whole entry, the tested form may be a part): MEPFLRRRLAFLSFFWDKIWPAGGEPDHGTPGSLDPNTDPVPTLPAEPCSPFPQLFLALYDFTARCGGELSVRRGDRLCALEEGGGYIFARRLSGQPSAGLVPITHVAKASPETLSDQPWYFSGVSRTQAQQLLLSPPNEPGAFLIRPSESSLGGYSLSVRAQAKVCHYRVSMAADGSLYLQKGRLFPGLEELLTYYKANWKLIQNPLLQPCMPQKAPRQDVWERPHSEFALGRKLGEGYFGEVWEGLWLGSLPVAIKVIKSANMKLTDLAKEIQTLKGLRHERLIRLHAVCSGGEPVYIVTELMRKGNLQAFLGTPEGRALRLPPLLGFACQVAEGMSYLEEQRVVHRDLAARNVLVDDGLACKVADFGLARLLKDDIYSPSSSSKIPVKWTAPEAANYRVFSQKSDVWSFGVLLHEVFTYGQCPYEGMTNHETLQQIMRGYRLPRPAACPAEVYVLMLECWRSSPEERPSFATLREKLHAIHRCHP

[26] = target: Serine/threonine-protein kinase 36 (Homo sapiens) (UniProt Q9NRP7); assay: Inhibition of wild-type human partial length STK36 (M1 to T271 residues) expressed in bacterial expression system at 10 uM by Kinomescan method relative to control
[27] = target: Serine/threonine-protein kinase 32C (Homo sapiens) (UniProt Q86UX6); assay: Inhibition of wild-type human partial length YANK3 (M68 to G486 residues) expressed in bacterial expression system at 10 uM by Kinomescan method relative to control
Chain of Serine/threonine-protein kinase 32C (Homo sapiens) (Q86UX6 whole entry, the tested form may be a part): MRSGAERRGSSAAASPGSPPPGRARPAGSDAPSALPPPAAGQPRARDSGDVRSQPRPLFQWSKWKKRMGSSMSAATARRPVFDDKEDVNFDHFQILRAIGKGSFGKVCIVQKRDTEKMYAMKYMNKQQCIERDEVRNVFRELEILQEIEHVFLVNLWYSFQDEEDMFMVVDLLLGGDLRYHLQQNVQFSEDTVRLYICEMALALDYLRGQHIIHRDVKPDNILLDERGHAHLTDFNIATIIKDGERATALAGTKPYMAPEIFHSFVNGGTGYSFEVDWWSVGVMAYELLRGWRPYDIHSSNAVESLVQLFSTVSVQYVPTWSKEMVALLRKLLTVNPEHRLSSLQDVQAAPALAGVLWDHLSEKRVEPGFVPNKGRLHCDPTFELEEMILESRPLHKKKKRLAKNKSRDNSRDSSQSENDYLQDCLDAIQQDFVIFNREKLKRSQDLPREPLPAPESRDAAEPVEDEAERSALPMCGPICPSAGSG

Chain of Tyrosine-protein kinase ABL1 (Homo sapiens), P00519 [F317L] (P00519 whole entry F317L, the tested form may be a part): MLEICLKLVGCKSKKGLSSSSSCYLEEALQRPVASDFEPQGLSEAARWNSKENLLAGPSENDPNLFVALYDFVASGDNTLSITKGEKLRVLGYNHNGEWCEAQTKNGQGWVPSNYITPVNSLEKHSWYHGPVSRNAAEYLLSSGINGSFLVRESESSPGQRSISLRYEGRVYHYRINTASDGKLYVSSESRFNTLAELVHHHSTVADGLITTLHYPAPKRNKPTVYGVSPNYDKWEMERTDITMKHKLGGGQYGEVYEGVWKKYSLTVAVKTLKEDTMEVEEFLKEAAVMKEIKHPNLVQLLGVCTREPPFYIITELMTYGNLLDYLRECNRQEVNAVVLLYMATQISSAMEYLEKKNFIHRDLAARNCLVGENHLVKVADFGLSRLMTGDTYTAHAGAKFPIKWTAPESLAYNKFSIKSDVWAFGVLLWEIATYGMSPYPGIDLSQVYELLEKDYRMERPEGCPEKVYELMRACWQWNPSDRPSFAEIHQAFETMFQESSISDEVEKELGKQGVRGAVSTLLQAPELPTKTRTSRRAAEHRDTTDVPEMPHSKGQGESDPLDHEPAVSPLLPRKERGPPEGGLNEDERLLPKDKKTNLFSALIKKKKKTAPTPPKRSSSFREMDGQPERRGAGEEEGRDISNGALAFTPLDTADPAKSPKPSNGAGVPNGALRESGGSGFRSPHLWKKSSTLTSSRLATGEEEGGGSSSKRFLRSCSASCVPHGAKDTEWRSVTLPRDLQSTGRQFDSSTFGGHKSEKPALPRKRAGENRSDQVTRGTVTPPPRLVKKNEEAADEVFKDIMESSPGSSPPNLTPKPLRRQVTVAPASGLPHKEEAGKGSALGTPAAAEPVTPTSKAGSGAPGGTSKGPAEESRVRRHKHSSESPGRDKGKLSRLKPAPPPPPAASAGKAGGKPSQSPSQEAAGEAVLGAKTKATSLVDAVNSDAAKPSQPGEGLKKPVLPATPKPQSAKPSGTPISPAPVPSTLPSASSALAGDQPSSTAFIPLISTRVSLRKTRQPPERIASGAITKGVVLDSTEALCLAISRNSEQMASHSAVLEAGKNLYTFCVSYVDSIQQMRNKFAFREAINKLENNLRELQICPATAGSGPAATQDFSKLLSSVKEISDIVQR

## O=C(Nc1cccc([C@@H]2CN(c3ncnc4[nH]ccc34)CCN2CCO)c1)Nc1c(F)cccc1N1CCCC1
[1]
  inhibition: 100%
[2]
  inhibition: 73%
[3]
  inhibition: 42%
[4]
  inhibition: 68%
[5]
  inhibition: 96%
[6]
  inhibition: 0%
[7]
  inhibition: 7.2%
[8]
  inhibition: 100%
[9]
  inhibition: 80%
[10]
  inhibition: 30%
[11]
  inhibition: 91%
[12]
  IC50: 1 nM

## O=C(Nc1cccc([C@H]2CCCN(c3ncnc4[nH]ccc34)C2)c1)Nc1ccccc1N1CCCC1
[13]
  inhibition: 96%
[14]
  inhibition: 82%
[15]
  inhibition: 83%
[16]
  inhibition: 100%
[17]
  inhibition: 69%
[18]
  inhibition: 72%
[19]
  inhibition: 0.3%
[20]
  inhibition: 2.6%
[21]
  inhibition: 52%
[22]
  inhibition: 0.6%
[23]
  inhibition: 71%
[24]
  inhibition: 42%
[25]
  inhibition: 65%
[26]
  inhibition: 90%
[27]
  inhibition: 100%
